In one assay the test system is calmodulin. The assay is described as follows: Calmodulin protein levels in osteoclasts. In kind it is cell-based, avian. The settings on record: for calmodulin protein levels: PMA treated osteoclasts.
Assay [1] relates to avian osteoclasts. The assay can be described thus: mim-1 secretion by osteoclasts, Western analysis of lysates and media. In kind it is cell-based. The following applies: for effect on secretion of mim-1: PMA stimulated osteoclasts. As for the experimental part:
Avian osteoclasts were cultured as described in FIGS. 1 and 2; cells were washed with ice cold PBS and lysed. Culture media was collected from each treatment and boiled in sample buffer. Protein (25 μg) from cell lysates (Lysates) and equal aliquots of the corresponding media (Media) were resolved on 10% SDS-PAGE, transferred to PVDF membrane and Western blotted for mim-1. Molecular weights (kilodaltons) are indicated on the left. Representative of n=2 separate experiments.
Avian osteoclasts were cultured with bone (1 mg/well) for the indicated times in the presence of 0.3 μM PMA. Osteoclasts were washed with ice-cold phosphate buffered saline, lysed and 25 μg cell lysates resolved on 10% SDS-PAGE, transferred to PVDF membrane and probed with for mim-1 as described in the legend to FIG. 4. Data is representative of two separate experiments.
Avian osteoclasts are washed with phosphate buffered saline (PBS) and lysed as previously described (20). The lysis buffer (Buffer A) is 50 mM Tris, pH 7.0, 250 mM sucrose, 1 mM EGTA, 1 mM EDTA, 1 mM ammonium molybdate, 50 mM NaF, 1 mM orthovanadate, 0.5 μM okadaic acid, 5 mM benzamidine, 0.1 mM PMSF, 0.05 mg/ml pepstatin, 0.06 mg/ml leupeptin, 0.018 trypsin inhibitor units of aprotinin/ml, 10% glycerol and 1% Triton X100. Cells were solubilized 1 hr with rotation and the Triton insoluble material removed by centrifugation at 15,000×g for 5 min at 4° C. Lysates (25 μg protein) were resolved on 10% SDS-PAGE. Protein was transferred under standard conditions (21) to PVDF membranes. Mim-1 was detected on Western analysis using a polyclonal antibody generated against a trpE-mim-1 fusion protein (15) (generously provided by Scott Ness, University of New Mexico) by enhanced chemiluminescence. Protein concentrations were determined by the Bio Rad DC assay (Bio Rad, Richmond, Calif.).
To determine the effects of PMA on osteoclast secretion of mim-1 and its relation to bone resorption, osteoclasts were cultured as described above in the presence of the indicated concentrations of PMA and aliquots of media removed at the indicated times (FIG. 4) and the level of mim-1 determined b y Western analysis. As bone resorption was stimulated (see FIG. 1), mim-1 dercreased in the cell lysate (FIG. 4, left, Lysates) and increased in the culture, media (FIG. 4, right, Media).

In assay [2] the test system is avian osteoclasts. The assay is described as follows: Osteoclastic bone resorption assay (3H proline release from labeled bone). The settings on record: for effect on PMA stimulated increase in bone resorption: PMA stimulated osteoclasts. In kind it is cell-based, avian (white Leghorn hens). As for the experimental part:
Bone resorption assays using 150 μg labeled bone were cultured for four days in the presence of increasing concentrations of PMA. Resorption activity was quantified by measuring ^3H proline released to the media. Data represent the mean +/− SEM of n=5 experiments each performed in quadruplicate.
Avian osteoclasts (from egg-laying white Leghorn hens) were utilized because gram quantities of pure osteoclasts are readily obtained. Avian osteoclasts (>10^7 cells) were isolated as previously described (16). Laying hens on a limited calcium diet produce massive numbers of osteoclasts to meet the calcium requirement for eggshell production. The endosteum of such birds, is >50% osteoclasts by mass. Medullary bone is scraped from the endosteum into calcium- and magnesium-free phosphate-buffered saline (PBS) at 4° C. Cells are separated from matrix by washing through 100 μm nylon filters and sedimented through 70% newborn calf serum. Osteoclasts purified by density gradient sedimentation, result in preparations in which osteoclasts represent ˜75–90% of viable cells. Following sedimentation, macrophages represent <2% of the cell mass. For experiments requiring homogeneous osteoclasts the cells purified by serum sedimentation are then affinity purified b y attachment to bone fragments and then resedimented 24 hrs later, eliminating essentially all but viable, bone-attached osteoclasts (17).
L-[^3H]-proline-labeled devitalized bone is used as Substrate in the avian osteoclast resorption assay. This substrate has the advantages of reflecting removal of both the mineral and organic phases of bone, and is resistant to artifacts due to physicochemical exchange (e.g. media acidification (16)). Weanling rats (40–60 g) are injected with 1 mCi of L-[2,3,4,5−^3H]-proline, >100 Ci/mmol, on alternate days for 10 days. Rats are sacrificed on day 12 and bone recovered by dissection. After washing, the bone is dried in a desiccator at 42° C. for 7 days. Labeled 20–40 μm bone fragments are obtained by grinding the bone in a ball bearing mill and sieving to size.
Osteoclasts are plated at 2–3×10^3 cells/well on 24 well plates with 100 μg of labeled 20–40 μm ^3H labeled bone fragments. To avoid possible contamination (due to fusing macrophages or growth of fibroblast/osteoblast cells) bone resorption is measured after 4 days. Osteoclasts rapidly (˜4 hrs) attach to and begin to degrade the bone fragments, releasing label into the media. Bone degradation is determined by measuring label released to the media. […] The ^3H proline assay is also resistant to pH-dependent artifacts and has less inter-assay variability than pi t assays (17–19). Activity, with 100 μg bone fragments, is linear over 5–7 days (16).

Entries after “also recorded” stand apart in the source; their conditions may differ.

In the case of `CCCCCCCCCCCCCC(=O)O[C@@H]1[C@@H](C)[C@@]2(O)[C@@H](C=C(CO)C[C@]3(O)C(=O)C(C)=C[C@@H]23)[C@@H]2C(C)(C)[C@]12OC(C)=O` [PMA, phorbol myristate acetate], the calmodulin protein levels entry with calmodulin was “increase in calmodulin protein levels”; with calmodulin (listed as Phorbol myristate acetate), “dose dependent increase”. The “mim-1 in osteoclast cell lysates” value in the assay on avian osteoclasts [1] (0.3 μM PMA, 24 hours) is recorded as “substantially reduced”. Also, the “secretion of mim-1 by osteoclasts” value in the assay on avian osteoclasts [1] (increasing concentrations of PMA) is on record as “rapidly increased; also recorded: stimulated in a PMA concentration dependent manner”. Besides, the EC50 in the assay with avian osteoclasts [2] (Osteoclast, 96 h, read-out: K0.5 of stimulation of bone resorption) lay within 0.1 to 0.3 µM. Moreover, in the assay on avian osteoclasts [2] (isolated avian osteoclasts, 4 days, 3H proline released to media), the “stimulation of bone resorption by isolated osteoclasts” value came to 4 fold.

Consider `CN1CCN(CCCN2c3ccccc3Sc3ccc(C(F)(F)F)cc32)CC1` [trifluoperazine], for which the “effect on secretion of mim-1” value with avian osteoclasts [1] is reported as “did not inhibit”. For the same compound, the “effect on PMA stimulated increase in bone resorption” value in the assay with avian osteoclasts [2] is on record as “inhibited”.

In the case of `CC/C(=C(\c1ccccc1)c1ccc(OCCN(C)C)cc1)c1ccccc1` [tamoxifen], in the assay with calmodulin (PMA stimulated osteoclasts), the “effect on PMA dependent increase in calmodulin levels” value is “inhibit”. The “effect on secretion of mim-1” value with avian osteoclasts [1] is “did not inhibit”. Also, the “effect on PMA stimulated increase in bone resorption” value in the assay on avian osteoclasts [2] is “inhibited”.

The values above are taken from patent publication US7048919B2, “Osteoclast secreted chemokine and uses thereof” (The UAB Research Foundation, priority 2000, dated 2006).
